Data taken from patent publication US20170035824A1, “USAGE OF OBLONGIFOLIN C, A NATURAL COMPOUND FROM GARCINIA YUNNANENSIS HU, ON TREATING CANCER AS METASTASIS INHIBITOR AND AUTOPHAGIC FLUX INHIBITOR” (Hong Kong Baptist University, priority 2013, published 2017).
Structures can show the parent of a compound that is named as a salt.

Columns and labels:
MEF = assay: Live cell imaging and colocalization analysis (GFP-LC3 / LysoTracker Red); assay type: cell-based, mouse; conditions: OC 15 μM, 8 hours, FIG. 12
Protocol: The colocalization of GFP-LC3 and LysoTracker Red were analyzed by confocal microscopy. The enlarged images show the colocalization of two signals.
(§1) For lysotracker staining, HeLa or MEF cells grown on coverslips were stained with 50 nM Lysotracker Red DND-99 (Molecular Probes, Invitrogen, L7528) in pre-warmed medium for 20 min at 37° C. All of the samples were examined under an Olympus FV1000 confocal microscope (Olympus) equipped with a 63×oil immersion objective. The confocal images were acquired using FV10-ASW 2.0 software. Calculation of Pearson's correlation coefficient (PCC) was applied to quantify colocalization. PCC was calculated by FV10-ASW 2.0 software between the stack of images from two channels.

ECA109 cells [1] = assay: Anti-invasion assay (Matrigel assay); assay type: cell-based, human; conditions: ECA109, 72 hr, FIG. 4
Protocol: (§2) Human esophageal cancer cell line ECA109 were maintained in RPMI1640 (Gibco/Invitrogen) supplemented with 10% fetal bovine serum (Invitrogen), 100 U/ml penicillin-streptomycin (Gibco/ Invitrogen, 15140-122), within a humidified atmosphere containing 5% CO2 at 37° C.
(§3) Cell invasion was determined using Matrigel (BD) coated transwell (Corning) with pore size of 8 μm. 5×10^4 cells that were seeded in serum-free medium in the upper chamber, while medium containing 10% FBS in the lower chamber. After incubating for 72 hr at 37° C., cells in the upper chamber were carefully removed with a cotton swab and the cells that had traversed to reverse face of the membrane were fixed in methanol, stained with Giemsa, and counted.

[2] = test system: lysosomal proteolytic activity; assay: Lysosomal proteolytic activity / autophagic flux; assay type: cell-based
[3] = test system: human hepatocytes (HepG2); assay: GFP-LC3 translocation; assay type: cell-based; conditions: HepG2, 10 μM, 24 hours, FIG. 7
Protocol: (§4) MEF, HeLa, CNE, HCT116, MCF7 and HepG2 cells were transfected with pEGFP-LC3 plasmid using lipofectamine 2000 (Invitrogen, 11668-019). One day after transfection, cells were treated with 10 μM Oblongifolin C for 24 hours prior to fixation. Image acquisition was done using an Olympus FV1000 confocal microscope. The number of GFP-LC3 dots was counted from at least 150 cells from randomly placed positions within each sample.

[4] = test system: human colon cancer cells (HCT116); assay: GFP-LC3 translocation; assay type: cell-based; conditions: HCT116, 10 μM, 24 hours, FIG. 7
Protocol: as §4

[5] = test system: mouse embryonic fibroblast cells (MEF); assay: GFP-LC3 translocation; assay type: cell-based; conditions: 10 μM, 24 hours, FIG. 7
Protocol: as §4

[6] = test system: human breast cancer cells (MCF7); assay: GFP-LC3 translocation; assay type: cell-based; conditions: MCF7, 10 μM, 24 hours, FIG. 7
Protocol: as §4

[7] = test system: human nasopharyngeal cancer cells (CNE); assay: GFP-LC3 translocation; assay type: cell-based; conditions: 10 μM, 24 hours, FIG. 7
Protocol: as §4

MEF cells = assay: Western blot for endogenous LC3 / SQSTM1; assay type: cell-based, mouse
Protocol: (§5) GAPDH was used as a loading control. An image J densitometric analysis of the LC3-II/GAPDH ratio from LC3 immunoblots was shown.
(§6) Samples were analyzed by western blotting for endogenous SQSTM1 and GAPDH. An image J densitometric analysis of the SQSTM1/GAPDH ratio from immunoblots was shown.
(§7) Cells were lysed in ice-cold whole cell extract buffer (50 mM pH8.0 Tris-HCl, 4M urea and 1% TritonX-100), supplemented with complete protease inhibitor mixture (Roche Diagnostics, 04693132001). Cell extracts were resolved by SDS-PAGE gel electrophoresis and transferred to a nitrocellulose membrane. After blocking with 5% non-fat milk in Tris-buffered saline containing 0.2% Tween-20, the membranes were probed with the following antibodies: LC3B (sigma, L7543), SQSTM1/p62 (MBL, PM045), GAPDH (Proteintech, 10494-1-AP), CASP3 (Cell signaling, #9962). Following incubation with horseradish peroxidase coupled secondary anti-mouse (KPL, 074-1806) or anti-rabbit antibodies (KPL, 474-1506), protein bands were visualized using ECL Blotting Detection Reagents (KPL, 54-61-00).

[8] = test system: human colorectal cancer cell lines; conditions: previous studies (Feng et al. 2012; Huang et al. 2009); cited from earlier work
HeLa cells xenograft = assay: Anti-cancer activity in vivo, cervical cancer xenograft; design: species or system BALB/c nude mice; conditions: for tumor size versus vehicle treated mice: HeLa xenograft, intratumoral once every 2 days, seven injections, OC 12 μg, Etopside 4 μg
Protocol: Four weeks old nude mice were engrafted with HeLa cells and observed until tumors reached ˜100 mm^3. Tumor-bearing mice were then treated vehicle, OC (12 μg) or Etopside (4 μg) […] by intratumoral once every 2 days for a total of seven injections. Mice were killed and tumors resected and weighed 2 days after the final injection.
Four-week-old BALB/c nude mice were purchased from the Experimental Animal
Center of Chinese Academy of Science (Shanghai, China) and kept in pathogen free environment at Experimental Animal Center in Shanghai University of Traditional Chinese Medicine. The mice have an average weight of 20 g. Approximately 2×10^6 HeLa cells were injected into the left and right sides of the animals. Two weeks later, 15 mice bearing tumors around 100 mm^3 in volume were randomly divided into vehicle control, etoposide (positive control) and oblongifolin C-treated groups. The mice were administered via intratumoral injection at the dose of 4 μg etopside or 12 μg OC in 200 μl solvent (0.05% DMSO, 0.05% Tween-80 in PBS) once every two days for two weeks. The tumor size was measured over a period of two weeks.

HeLa cells [9] = assay: Western blot for cleaved Caspase 3 in DMEM or EBSS medium; assay type: cell-based; conditions: DMEM and EBSS, 24 hours, FIG. 14
Protocol: Samples were analyzed by western blotting for cleaved Caspase 3, LC3 and SQSTM1. GAPDH was used as a loading control.
as §7
(§8) Cells were treated with Oblongifolin C then cultured in complete (DMEM with serum) or nutrient deprived medium (EBSS) for 24 hours. The cells were fixed in 70% ethanol in PBS overnight. For cell cycle distribution, cells were counterstained with propidium iodide and analyzed for DNA content by use of a BD Influx™ flow cytometer.

ECA109 cells [10] = assay: Transwell assay (cell migration); assay type: cell-based, human; conditions: ECA109, 24 hours, FIG. 3
Protocol: as §2
as §3, with “migration” for “invasion”, “was also” for “was”, “a” for “Matrigel (BD) coated”, “24 hours” for “72 hr”

CNE cells = assay: Flow cytometry (propidium iodide), complete vs nutrient-deprived medium; assay type: cell-based, human; conditions: OC 5 μM, EBSS vs DMEM, 24 hours, FIG. 13
Protocol: (§9) The cells were fixed and stained with propidium iodide (PI).
(§10) HeLa, HCT116, CNE, MCF7, MDA-MB-231, HepG2 and MEFs were maintained in Dulbecco's modified Eagle's medium (Gibco/Invitrogen, 12800-017) supplemented with 10% fetal bovine serum 100U/m1 penicillin-streptomycin (Gibco/ Invitrogen, 15140-122) at 37° C. in a humidified 5% CO2 incubator. For nutrient starvation, HeLa or CNE cells cultured in DMEM were washed three times with PBS, then cultured in Earle's Balanced Salt Solution (EBSS, Sigma, E6132) for indicated time point.
as §8

ECA109 cells [11] = assay: Wound healing assay; assay type: cell-based, human; conditions: ECA109, 24 hours, FIG. 2
Protocol: as §2
ECA109 cells were seeded on 12-well plates at a density of 1×10^5 cells/well. After the cells reached sub-confluence, the mono-layer cells were wounded by scraping off the cells and then grown in medium for 24 hours. The migrated distance of cells was monitored and imaged under a microscope.

HeLa cells [12] = assay: Flow cytometry (propidium iodide), complete vs nutrient-deprived medium; assay type: cell-based; conditions: OC 5 μM, EBSS vs DMEM, 24 hours, FIG. 13
Protocol: as §9, §10, §8

[13] = test system: HeLa cells stably expressing GFP-LC3; assay: Live cell imaging and colocalization analysis (GFP-LC3 / LysoTracker Red); assay type: cell-based; conditions: OC 15 μM or HCQ 50 μM, 8 hours, FIG. 11
Protocol: Live cell images of GFP-LC3 and LysoTracker Red were taken using Olympus confocal microscope. The enlarged images show the colocalization of two signals.
as §1

HeLa cells [14] = assay: Western blot for endogenous LC3 / SQSTM1; assay type: cell-based
Protocol: as §5, §6, §7

HeLa-LC3-GFP cells = assay: GFP-LC3 translocation and quantitative analyses; assay type: cell-based; conditions: OC 5, 10 and 20 μM, 24 hours, FIG. 5 and 6
Text: as §4, with “One day after transfection, cells were treated with 10 μM Oblongifolin C for 24 hours prior to fixation.” left out

[15] = literature background; cited from earlier work

CC(C)=CCC/C(C)=C/C[C@@H]1C[C@]2(CC=C(C)C)C(=O)[C@@](CC=C(C)C)(C(=O)C(C(=O)c3ccc(O)c(O)c3)=C2O)[C@@]1(C)CCC=C(C)C [Oblongifolin C]
autophagosome-lysosome fusion (colocalization of GFP-LC3 and LysoTracker Red) (MEF): block autophagosome-lysosome fusion | cell invasion through matrigel (ECA109 cells [1]): suppress ECA109 cells invasion through matrigel at a concentration dependent manner | autophagic flux and lysosomal proteolytic activity [2]: blocks both autophagic flux and lysosomal proteolytic activity | GFP-LC3 puncta formation [3]: could regulate GFP-LC3 puncta formation | GFP-LC3 puncta formation [4]: could regulate GFP-LC3 puncta formation | GFP-LC3 puncta formation [5]: could regulate GFP-LC3 puncta formation | GFP-LC3 puncta formation [6]: could regulate GFP-LC3 puncta formation | GFP-LC3 puncta formation [7]: could regulate GFP-LC3 puncta formation | amount of LC3-II protein (time dependence) (MEF cells; MEF, OC 15 μM, 0, 4, 8, 12 and 24 hours, FIG. 9): increase the amount of LC3-II protein in a time-dependent manner | amount of LC3-II protein (dose dependence) (MEF cells; MEF, OC 2, 5, 10 and 25 μM, 24 hours, FIG. 8): increase the amount of LC3-II protein in a dose-dependent manner | amount of LC3-II protein (FIG. 10; autophagic flux) (MEF cells; MEFs, OC 15 μM over a time period, FIG. 10): increase the amount of LC3-II protein in a time-dependent manner | relative potency among PPAP compounds [8]: most potent PPAP compound | anticancer effect in cervical cancer xenograft (HeLa cells xenograft; 12 μg OC intratumoral once every two days for two weeks, FIG. 15): anticancer effect similar to etopside | tumor size versus vehicle treated mice (HeLa cells xenograft): smaller than those of vehicle treated mice | effective dosage for mouse (HeLa cells xenograft; based on 12 μg given to 20 g mouse): 0.6 mg/kg | tumor markers in cervical cancer xenograft mouse model (Caspase 3, LC3, SQSTM1, lysosomal cathepsins) (HeLa cells xenograft; cervical cancer xenograft mouse model): increased Casepse 3 cleavage, LC3 and SQSTM1 accumulation, and reduced expression of lysosomal cathepsins | Caspase 3 cleavage (HeLa cells [9]): resulted in Caspase 3 and cleavage in concentration-dependent manner | cell migration through transwell (ECA109 cells [10]): suppress ECA109 cells migration through transwell at concentration dependent manner | apoptosis of nutrient-deprived cancer cells (CNE cells): sensitizes nutrient-deprived cancer cells to apoptosis | wound healing (migrated distance of cells) (ECA109 cells [11]): suppressed the wound healing in a concentration dependent manner | apoptosis of nutrient-deprived cancer cells (HeLa cells [12]): sensitizes nutrient-deprived cancer cells to apoptosis | autophagosome-lysosome fusion (colocalization of GFP-LC3 and LysoTracker Red) [13]: block autophagosome-lysosome fusion | amount of LC3-II protein (FIG. 10; autophagic flux) (HeLa cells [14]; OC 15 μM over a time period, FIG. 10): increase the amount of LC3-II protein in a time-dependent manner | amount of LC3-II protein (time dependence) (HeLa cells [14]; OC 15 μM, 0, 4, 8, 12 and 24 hours, FIG. 9): increase the amount of LC3-II protein in a time-dependent manner | amount of LC3-II protein (dose dependence) (HeLa cells [14]; OC 2, 5, 10 and 25 μM, 24 hours, FIG. 8): increase the amount of LC3-II protein in a dose-dependent manner | GFP-LC3 puncta formation (HeLa-LC3-GFP cells): could regulate GFP-LC3 puncta formation at concentration dependent manner

CCN(CCO)CCCC(C)Nc1ccnc2cc(Cl)ccc12 (centres unmarked) [HCQ, hydroxychloroquine sulfate, reference compound]
autophagosome-lysosome fusion (colocalization of GFP-LC3 and LysoTracker Red) [13]: block autophagosome-lysosome fusion

COc1cc([C@@H]2c3cc4c(cc3[C@@H](O[C@@H]3O[C@@H]5CO[C@@H](C)O[C@H]5[C@H](O)[C@H]3O)[C@H]3COC(=O)[C@H]23)OCO4)cc(OC)c1O [Etop, etoposide, reference compound]
tumor size versus vehicle treated mice (HeLa cells xenograft): smaller than those of vehicle treated mice

CC(C)=CCC[C@]1(C)C=Cc2c(O)c3c(c(CC=C(C)C)c2O1)O[C@]12C(=C[C@@H]4C[C@H]1C(C)(C)O[C@@]2(C/C=C(/C)C(=O)O)C4=O)C3=O [GA, gambogic acid]
toxicity [15]: induces toxicity to the liver and kidney
